Test results published in PubChem BioAssay AID328 (DTP/NCI, 2004).
Several values for one entry are separate records, joined by “and”; a condition that tells them apart may be missing. Identical values can stand only once. Toxic doses and inconclusive results are not listed.

Test system: BDF1 mice, P388 leukemia ip, median survival T/C
Assay: NCI In Vivo Anticancer Drug Screen. Data for tumor model P388 Leukemia (intraperitoneal) in B6D2F1 (BDF1) mice
Settings: endpoint: median survival time, higher = longer survival
Procedure, shortened: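 Antitumour effect was judged in vivo: survival in drug-treated mice, normalised to that of vehicle-dosed controls, gives the reported T/C.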

[1] = dose: 100.0 mg/kg/injection, schedule: Q04DX003 (ip), vehicle: Klucel (hydroxypropylcellulose) (HPC)
[2] = dose: 200.0 mg/kg/injection, schedule: Q04DX003 (ip), vehicle: Klucel (hydroxypropylcellulose) (HPC)
[3] = dose: 50.0 mg/kg/injection, schedule: Q04DX003 (ip), vehicle: Klucel (hydroxypropylcellulose) (HPC)
[4] = dose: 100.0 mg/kg/injection, schedule: Q01DX009 (ip), vehicle: Klucel (hydroxypropylcellulose) (HPC)
[5] = dose: 200.0 mg/kg/injection, schedule: Q01DX009 (ip), vehicle: Klucel (hydroxypropylcellulose) (HPC)
[6] = dose: 6.25 mg/kg/injection, schedule: Q01DX009 (ip), vehicle: saline
[7] = dose: 12.5 mg/kg/injection, schedule: Q01DX009 (ip), vehicle: saline
[8] = dose: 100.0 mg/kg/injection, schedule: Q01DX001 (ip), vehicle: saline with Tween-80
[9] = dose: 200.0 mg/kg/injection, schedule: Q01DX001 (ip), vehicle: saline with Tween-80
[10] = dose: 50.0 mg/kg/injection, schedule: Q01DX009 (ip), vehicle: Klucel (hydroxypropylcellulose) (HPC)

## NC(=O)NO
dose: 31.3 mg/kg/injection, schedule: Q01DX010 (ip), vehicle: saline
  T/C: 100 % of control
dose: 62.5 mg/kg/injection, schedule: Q01DX010 (ip), vehicle: saline
  T/C: 100 % of control
dose: 125.0 mg/kg/injection, schedule: Q01DX010 (ip), vehicle: saline
  T/C: 100 % of control
dose: 250.0 mg/kg/injection, schedule: Q01DX010 (ip), vehicle: saline
  T/C: 100 % of control
dose: 500.0 mg/kg/injection, schedule: Q01DX010 (ip), vehicle: saline
  T/C: 150 % of control
dose: 750.0 mg/kg/injection, schedule: Q01DX009 (ip), vehicle: saline
  T/C: 100 % of control

## CC(C)COC(=O)c1ccccc1O
dose: 75.0 mg/kg/injection, schedule: Q01DX009 (ip), vehicle: Klucel (hydroxypropylcellulose) (HPC)
  T/C: 109 % of control
[1]
  T/C: 111 % of control
dose: 150.0 mg/kg/injection, schedule: Q01DX009 (ip), vehicle: Klucel (hydroxypropylcellulose) (HPC)
  T/C: 90 % of control
[2]
  T/C: 92 % of control
dose: 300.0 mg/kg/injection, schedule: Q01DX009 (ip), vehicle: Klucel (hydroxypropylcellulose) (HPC)
  T/C: 109 % of control

## CCOC(=O)C(C)C(=O)Cc1cc(OC)c(C)cc1Br (configuration not stated)
[3]
  T/C: 100 % of control
[4]
  T/C: 110 % of control
[1]
  T/C: 91 % of control
[5]
  T/C: 105 % of control
[2]
  T/C: 95 % of control
dose: 400.0 mg/kg/injection, schedule: Q01DX009 (ip), vehicle: Klucel (hydroxypropylcellulose) (HPC)
  T/C: 100 % of control
dose: 400.0 mg/kg/injection, schedule: Q04DX003 (ip), vehicle: Klucel (hydroxypropylcellulose) (HPC)
  T/C: 95 % of control

## Clc1ccc(CNc2ncnc3[nH]ncc23)cc1
dose: 3.13 mg/kg/injection, schedule: Q01DX009 (ip), vehicle: saline with Tween-80
  T/C: 91 % of control
dose: 6.25 mg/kg/injection, schedule: Q01DX009 (ip), vehicle: saline with Tween-80
  T/C: 87 % of control
dose: 12.5 mg/kg/injection, schedule: Q01DX009 (ip), vehicle: saline with Tween-80
  T/C: 89 % of control
dose: 25.0 mg/kg/injection, schedule: Q01DX009 (ip), vehicle: saline with Tween-80
  T/C: 105 % of control

## Cc1ccc2c(c1)N=Cc1ccccc1O2
dose: 50.0 mg/kg/injection, schedule: Q01DX009 (ip), vehicle: saline + alcohol
  T/C: 104 % of control
dose: 100.0 mg/kg/injection, schedule: Q01DX009 (ip), vehicle: saline + alcohol
  T/C: 110 % of control
dose: 200.0 mg/kg/injection, schedule: Q01DX009 (ip), vehicle: saline + alcohol
  T/C: 106 % of control

## O=C1c2ccccc2C(=O)c2c(NCCCCCO)ccc(NCCCCCO)c21
dose: 25.0 mg/kg/injection, schedule: Q01DX009 (ip), vehicle: other
  T/C: 88 % of control
dose: 100.0 mg/kg/injection, schedule: Q01DX009 (ip), vehicle: other
  T/C: 88 % of control

## Cc1cc[n+](CCc2ccccc2)cc1
[6]
  T/C: 91 % of control
[7]
  T/C: 87 % of control
dose: 18.75 mg/kg/injection, schedule: Q01DX010 (ip), vehicle: acetone
  T/C: 91 % of control
dose: 37.5 mg/kg/injection, schedule: Q01DX010 (ip), vehicle: acetone
  T/C: 87 % of control
dose: 50.0 mg/kg/injection, schedule: Q01DX009 (ip), vehicle: saline
  T/C: 112 % of control
dose: 75.0 mg/kg/injection, schedule: Q01DX010 (ip), vehicle: acetone
  T/C: 91 % of control

## Cc1ccc(CC2c3ccccc3Nc3ccccc32)cc1
[8]
  T/C: 86 % of control
[9]
  T/C: 86 % of control
dose: 400.0 mg/kg/injection, schedule: Q01DX001 (ip), vehicle: saline with Tween-80
  T/C: 88 % of control

## CNC(=S)N(N)c1ccccc1
[10]
  T/C: 108 % of control
[4]
  T/C: 94 % of control
[1]
  T/C: 90 % of control
[5]
  T/C: 95 % of control
[2]
  T/C: 95 % of control

## COc1ccc(C(C)=O)c(OC)c1C
dose: 100.0 mg/kg/injection, schedule: Q01DX009 (ip), vehicle: saline
  T/C: 104 % of control
dose: 200.0 mg/kg/injection, schedule: Q01DX009 (ip), vehicle: saline
  T/C: 96 % of control
dose: 400.0 mg/kg/injection, schedule: Q01DX009 (ip), vehicle: saline
  T/C: 100 % of control

## Cc1ccc(NC(=O)NC2CCCCC2)cc1
dose: 100.0 mg/kg/injection, schedule: Q01DX009 (ip), vehicle: saline with Tween-80
  T/C: 91 % of control
dose: 200.0 mg/kg/injection, schedule: Q01DX009 (ip), vehicle: saline with Tween-80
  T/C: 88 % of control
dose: 400.0 mg/kg/injection, schedule: Q01DX009 (ip), vehicle: saline with Tween-80
  T/C: 100 % of control

## CCC(C)Sc1nc(N)nc2c1ncn2C1OC(CO)C(O)C1O (configuration not stated)
dose: 100.0 mg/kg/injection, schedule: Q04DX003 (ip), vehicle: saline with Tween-80
  T/C: 91 % of control and 109 % of control
dose: 200.0 mg/kg/injection, schedule: Q04DX003 (ip), vehicle: saline with Tween-80
  T/C: 108 % of control and 118 % of control

## COc1cc2ccc(C(C)NCC#N)cc2cc1OC (configuration not stated)
[10]
  T/C: 109 % of control
[3]
  T/C: 100 % of control
[4]
  T/C: 100 % of control
[1]
  T/C: 95 % of control
[5]
  T/C: 122 % of control
[2]
  T/C: 95 % of control

## CC1(C)c2ccccc2C2C1C1(Cl)C(=O)C2(Cl)C(Cl)=C1Cl (configuration not stated)
dose: 100.0 mg/kg/injection, schedule: Q04DX003 (ip), vehicle: saline sonified
  T/C: 100 % of control
dose: 200.0 mg/kg/injection, schedule: Q04DX003 (ip), vehicle: saline sonified
  T/C: 95 % of control
dose: 400.0 mg/kg/injection, schedule: Q04DX003 (ip), vehicle: saline sonified
  T/C: 100 % of control

## c1ccc2c[n+]3ccccc3cc2c1
[6]
  T/C: 95 % of control
dose: 8.75 mg/kg/injection, schedule: Q04DX003 (ip), vehicle: saline
  T/C: 100 % of control
dose: 12.5 mg/kg/injection, schedule: Q01DX009 (ip), vehicle: Klucel (hydroxypropylcellulose) (HPC)
  T/C: 100 % of control
[7]
  T/C: 104 % of control
dose: 17.5 mg/kg/injection, schedule: Q04DX003 (ip), vehicle: saline
  T/C: 95 % of control
dose: 25.0 mg/kg/injection, schedule: Q01DX009 (ip), vehicle: Klucel (hydroxypropylcellulose) (HPC)
  T/C: 95 % of control

## COc1cc([C@@H]2c3cc4c(c(O)c3C[C@H]3COC(=O)[C@@H]32)OCO4)cc(OC)c1OC
dose: 0.5 mg/kg/injection, schedule: Q01DX001 (ip), vehicle: other
  T/C: 115 % of control
dose: 0.5 mg/kg/injection, schedule: Q01DX001 (ip), vehicle: saline
  T/C: 90 % of control
dose: 0.5 mg/kg/injection, schedule: Q01DX010 (ip), vehicle: other
  T/C: 122 % of control
dose: 1.0 mg/kg/injection, schedule: Q01DX001 (ip), vehicle: other
  T/C: 121 % of control
dose: 1.0 mg/kg/injection, schedule: Q01DX001 (ip), vehicle: saline
  T/C: 109 % of control
dose: 1.0 mg/kg/injection, schedule: Q01DX010 (ip), vehicle: other
  T/C: 150 % of control
dose: 2.0 mg/kg/injection, schedule: Q01DX001 (ip), vehicle: saline
  T/C: 118 % of control
dose: 2.0 mg/kg/injection, schedule: Q01DX010 (ip), vehicle: other
  T/C: 168 % of control
dose: 2.0 mg/kg/injection, schedule: Q01DX010 (ip), vehicle: saline
  T/C: 104 % of control
dose: 4.0 mg/kg/injection, schedule: Q01DX001 (ip), vehicle: saline
  T/C: 118 % of control

## CCOC(=O)C1=C(N)CC(c2ccc(C#N)cc2)NC1c1cccc(OC)c1O (configuration not stated)
[8]
  T/C: 105 % of control
[9]
  T/C: 111 % of control

## CC(C)N1CCC(=O)NC1=O
dose: 25.0 mg/kg/injection, schedule: Q01DX001 (ip), vehicle: saline sonified
  T/C: 104 % of control
dose: 50.0 mg/kg/injection, schedule: Q01DX001 (ip), vehicle: saline sonified
  T/C: 104 % of control
dose: 100.0 mg/kg/injection, schedule: Q01DX001 (ip), vehicle: saline sonified
  T/C: 100 % of control

## Cc1cc2c3ccccc3ccc2[n+]2ccccc12
dose: 4.1 mg/kg/injection, schedule: Q01DX009 (ip), vehicle: saline
  T/C: 120 % of control
dose: 9.37 mg/kg/injection, schedule: Q01DX009 (ip), vehicle: saline
  T/C: 161 % of control
dose: 18.75 mg/kg/injection, schedule: Q01DX009 (ip), vehicle: saline
  T/C: 171 % of control and 180 % of control
dose: 28.12 mg/kg/injection, schedule: Q01DX009 (ip), vehicle: saline
  T/C: 190 % of control
dose: 37.5 mg/kg/injection, schedule: Q04DX003 (ip), vehicle: alcohol
  T/C: 112 % of control

## CCOC(=O)C(=O)C1CCNC1=O (configuration not stated)
dose: 12.5 mg/kg/injection, schedule: Q04DX003 (ip), vehicle: saline with Tween-80
  T/C: 100 % of control
dose: 25.0 mg/kg/injection, schedule: Q04DX003 (ip), vehicle: saline with Tween-80
  T/C: 100 % of control
dose: 50.0 mg/kg/injection, schedule: Q04DX003 (ip), vehicle: saline with Tween-80
  T/C: 100 % of control
